The values that follow come from US12479847B2 (DANA-FARBER CANCER INSTITUTE, INC., priority 2019, dated 2025).

Structures are written as SMILES.

Common to all, as to experiment: KINOMEscan (ScanMAX) kinase profiling
Holding throughout (type): binding

The target of assay [1] is T1, panel of 468 kinases (Homo sapiens, UniProt Q9Y2U5).
T1 construct: purchased KINOMEscan (ScanMAX) service
T1 sequence (Q9Y2U5 1-619): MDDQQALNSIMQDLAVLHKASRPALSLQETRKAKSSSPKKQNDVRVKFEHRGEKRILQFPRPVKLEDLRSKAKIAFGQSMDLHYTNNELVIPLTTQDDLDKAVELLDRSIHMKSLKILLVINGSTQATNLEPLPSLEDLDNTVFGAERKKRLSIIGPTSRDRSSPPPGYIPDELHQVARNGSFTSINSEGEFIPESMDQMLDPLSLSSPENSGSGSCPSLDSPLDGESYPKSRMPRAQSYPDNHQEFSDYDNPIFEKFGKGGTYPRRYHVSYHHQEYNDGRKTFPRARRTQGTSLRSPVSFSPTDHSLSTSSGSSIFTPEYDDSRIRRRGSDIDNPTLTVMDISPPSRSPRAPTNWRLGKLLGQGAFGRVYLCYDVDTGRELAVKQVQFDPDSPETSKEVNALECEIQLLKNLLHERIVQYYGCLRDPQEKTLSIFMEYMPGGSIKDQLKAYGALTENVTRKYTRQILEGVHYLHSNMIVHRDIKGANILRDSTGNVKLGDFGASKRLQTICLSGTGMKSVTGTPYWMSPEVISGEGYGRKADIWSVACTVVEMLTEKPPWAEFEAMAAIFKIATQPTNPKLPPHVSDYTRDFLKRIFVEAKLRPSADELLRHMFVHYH
Particulars: MAP3K2; 1 μM; read-out: % control.

Assay [2] addresses T2, panel of 468 kinases (Homo sapiens, UniProt P36507).
T2 construct: purchased KINOMEscan (ScanMAX) service
The settings on record: MEK2; 1 μM; read-out: % control.

The target in assay [3] is T3, panel of 468 kinases (Homo sapiens, UniProt Q8NEB9).
T3 construct: purchased KINOMEscan (ScanMAX) service
T3 sequence (Q8NEB9 whole entry): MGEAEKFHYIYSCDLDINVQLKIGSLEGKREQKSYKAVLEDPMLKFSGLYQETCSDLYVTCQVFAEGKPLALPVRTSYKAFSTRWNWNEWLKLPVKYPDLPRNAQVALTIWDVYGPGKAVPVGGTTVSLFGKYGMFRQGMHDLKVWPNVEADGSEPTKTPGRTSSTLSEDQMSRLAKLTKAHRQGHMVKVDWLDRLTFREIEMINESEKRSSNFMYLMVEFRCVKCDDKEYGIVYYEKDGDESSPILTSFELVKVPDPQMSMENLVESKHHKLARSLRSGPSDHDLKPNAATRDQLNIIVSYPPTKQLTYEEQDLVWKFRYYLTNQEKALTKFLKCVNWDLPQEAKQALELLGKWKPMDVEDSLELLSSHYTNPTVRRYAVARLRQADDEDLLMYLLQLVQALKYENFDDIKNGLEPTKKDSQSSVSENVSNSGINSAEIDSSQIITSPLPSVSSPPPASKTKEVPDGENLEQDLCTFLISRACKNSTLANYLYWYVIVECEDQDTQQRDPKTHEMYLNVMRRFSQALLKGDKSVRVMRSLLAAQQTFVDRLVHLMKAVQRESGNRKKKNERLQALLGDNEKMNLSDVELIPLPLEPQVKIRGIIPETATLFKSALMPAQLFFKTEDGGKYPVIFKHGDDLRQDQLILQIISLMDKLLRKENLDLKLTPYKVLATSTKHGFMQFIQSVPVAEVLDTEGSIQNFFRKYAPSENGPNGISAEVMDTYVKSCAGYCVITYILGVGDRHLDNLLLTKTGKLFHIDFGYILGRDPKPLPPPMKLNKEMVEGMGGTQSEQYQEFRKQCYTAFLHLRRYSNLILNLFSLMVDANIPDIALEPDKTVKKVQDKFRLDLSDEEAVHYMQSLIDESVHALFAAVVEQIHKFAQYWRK
Particulars: VPS34; 1 μM; read-out: % control.

Assay [4] addresses T4, panel of 468 kinases (Homo sapiens, UniProt Q9BX84).
T4 construct: purchased KINOMEscan (ScanMAX) service
The settings on record: TRPM6; 1 μM; read-out: % control.

Assay [5] deals with T5, panel of 468 kinases (Homo sapiens, UniProt Q9NRM7).
T5 construct: purchased KINOMEscan (ScanMAX) service
T5 sequence (Q9NRM7 1-1088): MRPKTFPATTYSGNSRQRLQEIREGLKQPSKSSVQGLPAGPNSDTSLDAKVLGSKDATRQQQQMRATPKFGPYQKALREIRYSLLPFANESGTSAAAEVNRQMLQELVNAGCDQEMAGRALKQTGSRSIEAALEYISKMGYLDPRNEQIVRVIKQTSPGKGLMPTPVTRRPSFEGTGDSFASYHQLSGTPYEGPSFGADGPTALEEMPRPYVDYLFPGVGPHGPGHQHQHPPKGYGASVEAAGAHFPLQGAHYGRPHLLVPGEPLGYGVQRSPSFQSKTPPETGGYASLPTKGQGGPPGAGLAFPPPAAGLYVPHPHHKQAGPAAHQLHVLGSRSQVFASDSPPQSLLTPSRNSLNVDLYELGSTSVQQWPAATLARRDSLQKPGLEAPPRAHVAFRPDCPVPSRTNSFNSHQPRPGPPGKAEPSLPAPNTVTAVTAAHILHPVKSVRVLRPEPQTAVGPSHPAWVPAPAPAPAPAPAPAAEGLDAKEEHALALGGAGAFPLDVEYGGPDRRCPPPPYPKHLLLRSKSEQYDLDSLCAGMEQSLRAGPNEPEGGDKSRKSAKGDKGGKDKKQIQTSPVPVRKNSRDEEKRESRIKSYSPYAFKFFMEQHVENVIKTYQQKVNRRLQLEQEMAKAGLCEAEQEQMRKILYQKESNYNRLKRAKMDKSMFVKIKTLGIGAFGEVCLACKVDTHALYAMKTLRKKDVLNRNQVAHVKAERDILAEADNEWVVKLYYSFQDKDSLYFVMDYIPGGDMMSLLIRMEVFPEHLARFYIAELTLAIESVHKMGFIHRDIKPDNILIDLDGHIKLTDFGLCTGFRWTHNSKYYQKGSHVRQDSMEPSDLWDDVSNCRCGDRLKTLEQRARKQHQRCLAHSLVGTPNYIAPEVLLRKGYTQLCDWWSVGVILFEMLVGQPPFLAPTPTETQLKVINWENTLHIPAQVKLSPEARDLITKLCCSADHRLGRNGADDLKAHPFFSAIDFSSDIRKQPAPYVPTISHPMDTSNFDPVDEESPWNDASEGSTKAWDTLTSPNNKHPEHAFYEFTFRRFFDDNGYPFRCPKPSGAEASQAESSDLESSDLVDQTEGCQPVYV
The settings on record: LATS2; 1 μM; read-out: % control.

The target of assay [6] is T6, panel of 468 kinases (Homo sapiens, UniProt Q9UEW8).
T6 construct: purchased KINOMEscan (ScanMAX) service
Particulars: STK39; 1 μM; read-out: % control.

For assay [7], the target named is T7, panel of 468 kinases (Homo sapiens, UniProt Q13233).
T7 construct: purchased KINOMEscan (ScanMAX) service
T7 sequence (Q13233 whole entry): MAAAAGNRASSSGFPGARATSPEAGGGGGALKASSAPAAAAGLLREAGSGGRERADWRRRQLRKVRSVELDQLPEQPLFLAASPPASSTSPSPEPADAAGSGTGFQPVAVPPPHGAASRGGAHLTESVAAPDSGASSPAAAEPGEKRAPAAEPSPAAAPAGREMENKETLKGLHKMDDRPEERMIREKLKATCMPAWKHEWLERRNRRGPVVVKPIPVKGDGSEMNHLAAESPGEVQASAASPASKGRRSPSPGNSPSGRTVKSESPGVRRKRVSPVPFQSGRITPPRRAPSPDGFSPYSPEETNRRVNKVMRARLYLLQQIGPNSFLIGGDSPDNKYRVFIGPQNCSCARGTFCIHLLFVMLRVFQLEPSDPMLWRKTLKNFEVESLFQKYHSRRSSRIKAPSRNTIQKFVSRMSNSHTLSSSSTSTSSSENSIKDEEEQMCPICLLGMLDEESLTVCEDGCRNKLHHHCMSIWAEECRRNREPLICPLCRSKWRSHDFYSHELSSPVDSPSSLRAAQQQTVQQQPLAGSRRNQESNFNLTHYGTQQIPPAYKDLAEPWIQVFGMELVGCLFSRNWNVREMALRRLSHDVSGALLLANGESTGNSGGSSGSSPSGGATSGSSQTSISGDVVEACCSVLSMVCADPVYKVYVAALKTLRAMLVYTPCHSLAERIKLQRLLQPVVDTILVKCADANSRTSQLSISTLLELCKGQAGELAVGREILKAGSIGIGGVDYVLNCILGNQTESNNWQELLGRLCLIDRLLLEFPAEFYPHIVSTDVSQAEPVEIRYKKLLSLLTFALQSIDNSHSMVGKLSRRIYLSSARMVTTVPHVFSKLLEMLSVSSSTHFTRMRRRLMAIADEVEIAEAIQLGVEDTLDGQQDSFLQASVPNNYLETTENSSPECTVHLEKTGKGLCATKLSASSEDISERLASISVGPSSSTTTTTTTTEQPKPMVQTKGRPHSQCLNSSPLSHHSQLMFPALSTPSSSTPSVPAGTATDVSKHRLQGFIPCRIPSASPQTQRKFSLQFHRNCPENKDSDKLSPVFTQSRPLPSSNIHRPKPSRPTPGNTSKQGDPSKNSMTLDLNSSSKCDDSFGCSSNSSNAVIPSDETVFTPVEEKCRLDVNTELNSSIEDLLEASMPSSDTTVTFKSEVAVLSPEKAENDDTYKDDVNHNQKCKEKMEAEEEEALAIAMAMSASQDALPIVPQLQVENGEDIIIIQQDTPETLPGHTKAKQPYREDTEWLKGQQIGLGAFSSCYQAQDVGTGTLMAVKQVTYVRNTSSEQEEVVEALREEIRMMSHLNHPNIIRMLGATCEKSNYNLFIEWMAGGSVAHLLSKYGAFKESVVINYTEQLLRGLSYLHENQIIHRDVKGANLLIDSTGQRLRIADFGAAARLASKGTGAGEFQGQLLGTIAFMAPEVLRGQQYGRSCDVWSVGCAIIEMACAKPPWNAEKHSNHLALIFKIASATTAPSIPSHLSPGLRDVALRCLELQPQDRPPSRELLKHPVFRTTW
Particulars: MAP3K1; 1 μM; read-out: % control.

T4 sequence (Q9BX84 whole entry): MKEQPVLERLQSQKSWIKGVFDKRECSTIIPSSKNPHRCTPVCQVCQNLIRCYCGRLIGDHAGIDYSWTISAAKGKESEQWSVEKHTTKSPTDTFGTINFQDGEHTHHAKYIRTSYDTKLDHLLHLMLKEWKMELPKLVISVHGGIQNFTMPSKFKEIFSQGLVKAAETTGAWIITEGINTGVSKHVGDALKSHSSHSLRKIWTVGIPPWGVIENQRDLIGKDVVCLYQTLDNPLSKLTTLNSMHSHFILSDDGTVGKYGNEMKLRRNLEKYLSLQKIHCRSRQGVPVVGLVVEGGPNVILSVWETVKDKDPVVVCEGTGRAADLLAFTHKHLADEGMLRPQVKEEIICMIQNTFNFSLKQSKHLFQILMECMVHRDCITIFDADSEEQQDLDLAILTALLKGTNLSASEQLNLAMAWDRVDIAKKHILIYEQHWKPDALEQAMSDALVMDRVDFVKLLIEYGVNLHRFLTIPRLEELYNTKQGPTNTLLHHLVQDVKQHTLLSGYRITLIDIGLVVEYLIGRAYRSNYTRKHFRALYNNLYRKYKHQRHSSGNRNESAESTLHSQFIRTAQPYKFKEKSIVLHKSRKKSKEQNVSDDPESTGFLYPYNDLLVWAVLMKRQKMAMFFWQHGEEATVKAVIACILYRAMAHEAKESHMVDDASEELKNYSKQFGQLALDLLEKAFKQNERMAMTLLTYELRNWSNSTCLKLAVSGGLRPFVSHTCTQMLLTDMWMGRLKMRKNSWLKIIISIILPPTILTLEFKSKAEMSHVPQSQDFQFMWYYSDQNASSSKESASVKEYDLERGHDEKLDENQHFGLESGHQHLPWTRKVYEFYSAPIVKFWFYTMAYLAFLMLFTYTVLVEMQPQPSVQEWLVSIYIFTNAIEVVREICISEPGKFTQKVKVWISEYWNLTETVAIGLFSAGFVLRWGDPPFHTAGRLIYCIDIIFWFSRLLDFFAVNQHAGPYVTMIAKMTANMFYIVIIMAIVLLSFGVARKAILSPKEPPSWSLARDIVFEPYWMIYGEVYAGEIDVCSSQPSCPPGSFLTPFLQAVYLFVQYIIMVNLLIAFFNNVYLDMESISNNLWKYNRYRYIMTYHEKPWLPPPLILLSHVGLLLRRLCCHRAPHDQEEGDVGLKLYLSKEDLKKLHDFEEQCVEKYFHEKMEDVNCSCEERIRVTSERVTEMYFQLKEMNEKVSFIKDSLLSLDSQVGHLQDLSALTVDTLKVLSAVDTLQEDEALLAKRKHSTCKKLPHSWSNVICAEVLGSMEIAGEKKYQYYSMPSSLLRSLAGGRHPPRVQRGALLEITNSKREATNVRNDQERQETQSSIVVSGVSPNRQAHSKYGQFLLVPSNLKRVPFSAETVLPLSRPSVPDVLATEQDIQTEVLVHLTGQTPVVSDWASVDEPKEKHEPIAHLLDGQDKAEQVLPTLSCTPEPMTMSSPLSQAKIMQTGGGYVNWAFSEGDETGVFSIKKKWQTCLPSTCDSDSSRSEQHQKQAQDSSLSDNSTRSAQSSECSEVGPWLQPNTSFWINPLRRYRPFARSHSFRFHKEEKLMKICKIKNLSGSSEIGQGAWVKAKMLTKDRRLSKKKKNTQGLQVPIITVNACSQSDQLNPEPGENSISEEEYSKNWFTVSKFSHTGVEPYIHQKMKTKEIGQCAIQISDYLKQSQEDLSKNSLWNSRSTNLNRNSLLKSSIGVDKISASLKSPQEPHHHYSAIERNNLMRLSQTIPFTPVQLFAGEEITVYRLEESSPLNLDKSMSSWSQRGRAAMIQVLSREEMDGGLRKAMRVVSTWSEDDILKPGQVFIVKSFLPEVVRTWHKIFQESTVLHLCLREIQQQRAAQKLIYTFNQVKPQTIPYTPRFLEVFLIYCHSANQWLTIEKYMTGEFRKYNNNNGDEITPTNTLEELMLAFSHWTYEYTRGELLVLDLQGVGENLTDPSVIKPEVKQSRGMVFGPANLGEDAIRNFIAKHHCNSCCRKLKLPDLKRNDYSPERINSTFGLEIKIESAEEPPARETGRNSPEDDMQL
T2 sequence (P36507 whole entry): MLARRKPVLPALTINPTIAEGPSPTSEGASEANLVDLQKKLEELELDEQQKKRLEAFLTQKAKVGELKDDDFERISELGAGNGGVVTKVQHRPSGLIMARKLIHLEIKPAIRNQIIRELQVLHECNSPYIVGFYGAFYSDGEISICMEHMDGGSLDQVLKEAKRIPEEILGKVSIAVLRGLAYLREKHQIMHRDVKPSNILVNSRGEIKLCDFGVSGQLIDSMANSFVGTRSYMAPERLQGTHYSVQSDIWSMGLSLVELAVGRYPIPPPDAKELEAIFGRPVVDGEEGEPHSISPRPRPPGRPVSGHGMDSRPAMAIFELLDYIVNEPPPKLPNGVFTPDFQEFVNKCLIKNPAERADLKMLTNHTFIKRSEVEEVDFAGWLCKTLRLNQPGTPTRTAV

As for `CNc1nc(Nc2ccc(C(=O)N3CCC(N4CCOCC4)CC3)c3c2OCO3)nc2[nH]cc(Cl)c12` [Compound 75, (7-((5-chloro-4-(methylamino)-7H-pyrrolo[2,3-d]pyrimidin-2-yl)amino)benzo[d][1,3]dioxol-4-yl)(4-morpholinopiperidin-1-yl)methanone], the remaining binding at 1 µM in assay [1] is 15%; in assay [2], 76%; in assay [3] it was 69%; in assay [4], 85%; in assay [5], 90%; in assay [6], 5.4%. For the same molecule, in assay [7], the remaining binding at 1 µM was 82%.
As to `CNc1nc(Nc2ccc(P3(=O)CCN(C4CCOCC4)CC3)cc2OC)nc2[nH]cc(Cl)c12` [Compound 77, 4-(4-((5-chloro-4-(methylamino)-7H-pyrrolo[2,3-d]pyrimidin-2-yl)amino)-3-methoxyphenyl)-1-(tetrahydro-2H-pyran-4-yl)-1,4-azaphosphinane 4-oxide], the remaining binding at 1 µM in assay [1] worked out at 86%; in assay [2], 78%; in assay [3], 71%; in assay [4], 88%; in assay [5] it was 93%; in assay [6] it was 0.5%. Further, the remaining binding at 1 µM in assay [7] was 73%.
On to `CNc1nc(Nc2ccc(S(=O)(=O)N3CCC(N4CCOCC4)CC3)cc2OC)nc2[nH]cc(Cl)c12` [Compound 12, 5-chloro-N2-(2-methoxy-4-((4-morpholinopiperidin-1-yl)sulfonyl)phenyl)-N4-methyl-7H-pyrrolo[2,3-d]pyrimidine-2,4-diamine], for which the remaining binding at 1 µM was 80% in assay [1]; 78% in assay [2]; 62% in assay [3]; 79% in assay [4]; 100% in assay [5]; 4.8% in assay [6]. In assay [7], the remaining binding at 1 µM was 79%.
